According to patent publication US12241102B2, “Method for synthesizing betalain pigment” (priority 2018, dated 2025):

What was measured:
[1] = test system: Human breast cancer cells (MCF-7); assay: Influence of betalain pigment on human breast cancer cells (AlamarBlue assay); format: cell-based; conditions: MCF-7 cells, concentration of 50 μM, cultured for 72 hours, p<0.05 vs untreated cells
Procedure: FIG. 14 show the results of evaluation of cell proliferation in MCF-7 cells. FIG. […] Cell proliferation was determined using an AlamarBlue assay according to the manufacturer's instructions. Bars represent the mean±SE (n=5). Symbol “*” represents p<0.05 as compared to untreated cells. […] Cells were examined under an inverted microscope. Bars represent 100 μm.
Human breast cancer cells (MCF-7) were received from the RIKEN BioResource Center. For the culture of the cells, Dulbecco's modified Eagle's medium-high glucose (4.5 g L^−1 glucose; DMEM-HG) supplemented with 10% FBS and antibiotics (100 U mL^−1 penicillin and 100 μg mL^−1 streptomycin) was used. The cells were cultured under the culture conditions of 37° C., a humidity of 100%, and a 5% CO2/95% air atmosphere. For the culture, the breast cancer cells were added at 5,000 cells per well on 96-well plates, and at the same time, amaranthin or betanin was added at different concentrations, and the cells were cultured for 72 hours. After that, the activity of the breast cancer cells was evaluated by an AlamarBlue assay (alamarBlue Cell Viability Reagent, Thermo Fisher Scientific). The procedure followed the accompanying instructions.

HIV-1 protease [2] = molecular target: T1, HIV-1 protease (Human immunodeficiency virus type 1 group M subtype B, UniProt P04585); assay: Evaluation of HIV-1 protease inhibitory activity (residual substrate peptide by HPLC); format: biochemical; set-up: A recombinant HIV-1 protease (ab84117) from Abcam was used as an HIV-1 protease; purchased Abcam ab84117; conditions: 25° C., 2 hours, pH 4.7
From the text: FIG. 15 show the results of evaluation of inhibition of an HIV-1 protease. FIG. 15A includes HPLC chromatograms of HIV-1 protease reaction mixtures. Dashed and solid arrows indicate an HIV-1 protease substrate and its degradation product, respectively. (+) and (−)HIV-1 protease indicate reaction mixtures with and without the HIV-1 protease, respectively. (−)Betalain indicates a reaction mixture without betalain pigments. The horizontal axis indicates the retention time (min), and the vertical axis indicates the signal intensity (μV). […] Gray and black bars indicate reaction mixtures containing betanin and amaranthin, respectively. The white bar indicates the reaction mixture without betalain pigments as a negative control. Bars represent the mean±SE (n=3). Symbol “*” represents p<0.05 as compared to the reaction mixture without betalain pigments. 0, 10, 50, and 100 indicate 0-, 10-, 50-, and 100-fold amounts of betalain as compared to the HIV-1 protease. […]
After the reaction, the reaction liquid was measured for the amount of the residual substrate peptide through use of HPLC, and a residual ratio with respect to the substrate before the reaction was calculated. […] Analysis was performed with an analytical wavelength being set to 260 nm allowing the HIV-1 protease substrate peptide to be detected.

HIV-1 protease [3] = molecular target: T1, HIV-1 protease; conditions: literature virtual screening, not tested experimentally there; cited from earlier work

Row | Structure (SMILES) | cancer cell activity of the breast cancer cells [1] | inhibitory activity on the HIV-1 protease (HIV-1 protease [2]; 10-, 50- and 100-fold amounts with respect to the HIV-1 protease) | virtual screening prediction as HIV-1 protease inhibitor (HIV-1 protease [3]) | activity of the HIV-1 protease (HIV-1 protease [2]; 100-fold amount with respect to the HIV-1 protease (16 pmol))
1 | O=C(O)C1=C/C(=C/C=[N+]2/c3cc(O)c(OC4OC(CO)[C@@H](O)C(O)C4O)cc3CC2C(=O)[O-])CC(C(=O)O)N1 (stereo in doubt) [betanin, reference compound] | significantly suppressed | not found to have inhibitory activity | – | –
2 | O=C(O)C1=C/C(=C/C=[N+]2c3cc(O)c(O[C@@H]4O[C@H](CO)[C@@H](O)[C@H](O)[C@H]4O[C@@H]4O[C@H](C(=O)O)[C@@H](O)[C@H](O)[C@H]4O)cc3C[C@H]2C(=O)[O-])C[C@@H](C(=O)O)N1 [amaranthin] | significantly suppressed | – | candidate of a novel HIV-1 protease inhibitor | significantly inhibited
